ChEMBL document CHEMBL1201862, “PubChem BioAssay data set” (2004)
Several values for one entry are separate records, joined by “and”; a condition that tells them apart may be missing. Identical values can stand only once. Counter-ions that a name gives are not always drawn. Activity calls are given as the source filed them.

What was measured:
cells = assay type: functional
[1] = viability of HCT116 lacking mutant beta-catenin – cell-based, human colon tumor, dose response (AID 1045); assay type: functional;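 note: HCT116 colon tumor cells with beta catenin knocked out; cells exposed to compound for 60 hours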
[2] = viability of PTEN-deleted HCT116 cells – cell-based, HCT116 PTEN knockout, dose response (AID 1047); assay type: functional;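 note: HCT116 colon tumor cells with PTEN knocked out; cells exposed to compound for 60 hours before readout; potency for loss of cell viability measured by luminescence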
Cytochrome P450 3A4 = Cytochrome P450 3A4 (Homo sapiens, UniProt P08684); settings: Potency;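 note: confirmatory qHTS run detecting inhibitors and substrates of CYP3A4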
Sequence of Cytochrome P450 3A4 (P08684 whole entry): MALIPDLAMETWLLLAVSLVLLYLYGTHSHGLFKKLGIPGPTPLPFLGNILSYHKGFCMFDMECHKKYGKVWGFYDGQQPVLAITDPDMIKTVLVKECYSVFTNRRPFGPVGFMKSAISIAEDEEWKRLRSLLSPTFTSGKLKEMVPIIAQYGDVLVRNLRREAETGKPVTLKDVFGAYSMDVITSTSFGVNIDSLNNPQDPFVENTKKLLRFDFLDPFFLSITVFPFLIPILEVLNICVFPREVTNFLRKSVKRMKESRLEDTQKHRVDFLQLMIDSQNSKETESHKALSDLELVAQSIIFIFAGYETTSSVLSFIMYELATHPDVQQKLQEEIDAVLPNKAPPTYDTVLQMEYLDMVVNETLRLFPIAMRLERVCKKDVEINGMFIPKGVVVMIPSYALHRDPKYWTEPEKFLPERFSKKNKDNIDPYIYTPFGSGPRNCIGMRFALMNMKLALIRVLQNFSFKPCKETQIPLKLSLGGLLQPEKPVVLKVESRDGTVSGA

Paired box protein Pax-8 = Paired box protein Pax-8 (Homo sapiens, UniProt Q06710); experiment: PAX8 transcriptional activity inhibition in RMG-I – RMG-I cells, luciferase, cherry-pick, dose response (AID 687027); assay type: functional, cell-based;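 note: luciferase reporter driven by Pax8 target thyroperoxidase promoter measured by SteadyGlo luminescence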
Sequence of Paired box protein Pax-8 (Q06710 whole entry): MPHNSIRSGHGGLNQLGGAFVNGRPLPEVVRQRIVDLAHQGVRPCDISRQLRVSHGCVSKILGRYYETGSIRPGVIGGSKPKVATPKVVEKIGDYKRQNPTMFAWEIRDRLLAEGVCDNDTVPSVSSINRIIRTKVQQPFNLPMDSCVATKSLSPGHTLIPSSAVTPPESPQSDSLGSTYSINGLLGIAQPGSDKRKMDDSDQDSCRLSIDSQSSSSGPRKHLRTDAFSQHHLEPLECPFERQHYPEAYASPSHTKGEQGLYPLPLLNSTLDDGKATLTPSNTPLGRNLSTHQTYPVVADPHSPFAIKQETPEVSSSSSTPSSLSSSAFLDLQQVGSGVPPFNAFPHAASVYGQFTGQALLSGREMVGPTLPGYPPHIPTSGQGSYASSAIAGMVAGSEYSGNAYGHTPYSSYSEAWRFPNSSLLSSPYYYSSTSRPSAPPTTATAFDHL

Streptokinase A = target: T1, Streptokinase A (Streptococcus pyogenes serotype M1, UniProt P10520); experiment: viability-normalized secreted streptokinase activity reduction – plasminogen activation absorbance, OD405, dose response (AID 1914); assay type: functional, Streptococcus pyogenes M1 GAS;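 note: secreted streptokinase activity via plasminogen activation per viability signal from cell pellet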
T1 sequence (P10520 whole entry): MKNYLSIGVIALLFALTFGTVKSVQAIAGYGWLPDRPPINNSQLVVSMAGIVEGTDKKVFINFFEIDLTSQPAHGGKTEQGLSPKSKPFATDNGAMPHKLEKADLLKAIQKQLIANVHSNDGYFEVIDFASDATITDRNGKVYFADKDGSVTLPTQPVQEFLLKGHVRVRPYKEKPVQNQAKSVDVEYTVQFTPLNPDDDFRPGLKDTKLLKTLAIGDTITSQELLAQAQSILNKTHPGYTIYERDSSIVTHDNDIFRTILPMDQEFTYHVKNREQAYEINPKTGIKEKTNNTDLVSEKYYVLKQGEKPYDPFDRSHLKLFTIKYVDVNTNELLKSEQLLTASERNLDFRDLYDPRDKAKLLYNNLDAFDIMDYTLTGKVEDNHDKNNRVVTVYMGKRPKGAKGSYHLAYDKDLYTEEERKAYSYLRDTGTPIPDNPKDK

Streptococcus = experiment: GAS UMAA2166 growth inhibition – luminescence, BacTiterGlo, counter-screen for streptokinase expression inhibitor project, dose response (AID 1915); assay type: functional, organism-based;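 note: potency for reduction of bacterial viability or growth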
[3] = tested on: Streptococcus sp. 'group A'; experiment: Streptococcus pyogenes SK(-)GAS viability under kanamycin – luminescence, BacTiterGlo, confirmation, counter-screen for streptokinase expression inhibitor project, dose response (AID 1900); assay type: functional, organism-based
Protein skinhead-1 = target: T2, Protein skinhead-1 (Caenorhabditis elegans, UniProt P34707); assay type: functional
T2 sequence (P34707 whole entry): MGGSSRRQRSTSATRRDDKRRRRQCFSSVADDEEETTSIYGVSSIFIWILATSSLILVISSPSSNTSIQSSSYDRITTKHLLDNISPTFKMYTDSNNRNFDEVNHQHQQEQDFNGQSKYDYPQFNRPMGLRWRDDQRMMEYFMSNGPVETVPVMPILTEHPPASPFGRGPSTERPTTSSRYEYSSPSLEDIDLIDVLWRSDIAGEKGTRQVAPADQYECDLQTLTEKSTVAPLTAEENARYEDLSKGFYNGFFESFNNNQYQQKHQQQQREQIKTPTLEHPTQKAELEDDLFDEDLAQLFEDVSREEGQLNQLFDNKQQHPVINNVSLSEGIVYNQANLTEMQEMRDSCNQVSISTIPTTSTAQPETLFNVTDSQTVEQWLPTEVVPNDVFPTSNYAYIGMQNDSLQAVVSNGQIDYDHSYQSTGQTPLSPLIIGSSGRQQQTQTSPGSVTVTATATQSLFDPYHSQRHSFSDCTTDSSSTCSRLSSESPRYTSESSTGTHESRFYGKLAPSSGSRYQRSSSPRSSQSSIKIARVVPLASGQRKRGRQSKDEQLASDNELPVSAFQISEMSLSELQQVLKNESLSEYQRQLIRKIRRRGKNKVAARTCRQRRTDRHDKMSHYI

[4] = non-specific 3'UTR reporter inhibition in Clone20-Shn3RL – cell-based, Renilla luciferase, cherry-picked, counter-screen for Shn3 inhibitor project, dose response (AID 624133); assay type: functional
[5] = reduction of Shn3 3'UTR-driven luciferase in osteoblasts – cell-based, Clone20 osteoblasts, firefly luciferase, cherry-picked, dose response (AID 624132); assay type: functional;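 note: firefly luciferase luminescence from reporter carrying the Shn3 3'UTR in osteoblasts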
[6] = loss of viability in HepG2 cells – cell-based, CellTiter-Glo, cherry-picked, cytotoxicity control for Shn3 inhibitor project, dose response (AID 624134); assay type: functional
[7] = microbe, parasite or virus in culture; assay type: functional; settings: Mycobacterium tuberculosis
[8] = NIH3T3 cell viability loss – ATP luminescence, mouse fibroblasts, counter-screen, dose response (AID 2010); assay type: functional, cell-based;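 note: cells exposed to compound for about 90 hours before reading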
[9] = Trypanosoma cruzi growth suppression in host cells – NIH3T3 host cells, beta-gal luminescence, confirmation (AID 2044); assay type: functional, cell-based;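 note: intracellular parasites grown in NIH/3T3 mouse fibroblasts as host cells; luminescent beta-galactosidase reporter signal from transgenic T. cruzi replicating inside host cells; inhibitors lower the luminescence signal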
[10] = blockers of HIV-1 envelope-mediated cell-cell fusion – cherry-pick, dose response (AID 652057); assay type: functional, cell-based
[11] = HIV-1 AD8 envelope cell-cell fusion blockers – cherry-pick, dose response (AID 652062); assay type: functional, cell-based;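 note: luciferase signal from cell-cell fusion driven by HIV-1 clade B AD8 Env; potency is for inhibitors of fusion seen as a drop in luminescence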
INS1 = experiment: INS-1E survival protection against cytokine death – cell-based, luminescence, retest, dose response (AID 449756); assay type: functional; settings: Rattus norvegicus;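 note: cell death triggered by IL-1 beta plus TNF-alpha plus IFN-gamma mixture; protective hits raise ATP signal compared with cytokine alone wells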

SMILES: O=C(NNc1c(F)c(F)cc(F)c1F)c1cc2ccccc2oc1=O
- IC50 (cells): 48 µM (active)

SMILES: Cc1ccc(NC(=O)Cn2cc(S(=O)(=O)c3ccc(C)cc3)c(=O)c3cc(F)ccc32)cc1
- EC50 [1]: 9.08 µM (active)
- EC50 [2]: 10.9 µM (active)

SMILES: COc1ccccc1/C=C/C1=CC2(C)CC1(C)C(c1ccccc1OC)CC2=O (stereo unspecified)
- AC50 (Cytochrome P450 3A4): 3.16 µM (inconclusive)

SMILES: CCOc1ccc(NC(=O)Nc2cc(OCC(F)(F)F)cc(OCC(F)(F)F)c2)cc1
- AC50 (Paired box protein Pax-8): 8.08 µM (active)
- EC50 [1]: 19.1 µM (active)
- EC50 [2]: 16.9 µM (active)

SMILES: Cc1ccc(C)c(-c2nnc(NC(=O)COc3ccccc3)o2)c1
- EC50 (Streptokinase A): > 150 µM (not active)
- EC50 (Streptococcus): 23.1 µM (active)
- IC50 (cells): 5.98 µM (active)
- EC50 [3]: 1.18 µM (active)

SMILES: CCc1nc2oc3ccccc3c(=O)c2c(=O)n1-c1ccccc1
- IC50 (Protein skinhead-1): > 100 µM (inactive)

SMILES: Cc1nc(NC2CCCCC2)c2nc(-c3ccccc3)n(CCN(C)C)c2n1
- AC50 (Cytochrome P450 3A4): 25.1 µM (inconclusive)

SMILES: COc1ccc(COC(=O)CCNC(=O)c2ccc(Cl)cc2)cc1
- IC50 (cells): > 50 µM (active)

SMILES: CCc1ccc(C(=O)Nc2ccc3nc(C)ccc3c2)cc1
- IC50 (Protein skinhead-1): 10.1 µM (active)

SMILES: CN(C)c1ccc(C(=N)c2ccc(N(C)C)cc2)cc1
- AC50 (Cytochrome P450 3A4): 15.8 µM (inconclusive)

SMILES: O=C(NCc1ccc(Cl)cc1)C1CCN(c2nnc(N3CCCC3=O)s2)CC1
- IC50 (Protein skinhead-1): > 100 µM (inactive)

SMILES: COc1ccc(CC(N)c2csc(NC(=O)NC(c3ccccc3)c3ccccc3)n2)cc1 (stereo unspecified)
- AC50 [4]: 19.3 µM (active)
- AC50 [5]: 6.4 µM (active)
- AC50 [6]: 21.1 µM (active)

SMILES: CC(C)c1ccc(NC(=O)Nc2nc(C(N)COCc3ccccc3)cs2)cc1 (stereo unspecified)
- AC50 [4]: 10.8 µM (active)
- AC50 [5]: 5.99 µM (active)
- AC50 [6]: 18.1 µM (active)

SMILES: O=C(O)C(Oc1ccc2ccccc2c1)c1ccccc1 (stereo unspecified)
- IC50 (Protein skinhead-1): > 100 µM (inactive)

SMILES: Cc1cccc(NC(=O)CSc2nc3ccccc3c(=O)n2C)c1C
- AC50 [4]: 15.2 µM (active)
- AC50 [5]: 2.98 µM (active)
- AC50 [6]: 39 µM (active)

SMILES: O=C1N=C(N/N=C/c2ccccn2)SC1Cc1cccc(SC(F)F)c1 (stereo unspecified)
- CC50 [7]: 14.7 µM (active)
- EC50 [8]: 4.95 µM (active)
- EC50 [9]: 528 nM (active)

SMILES: C[C@@H]1CN([C@H](C)CO)C(=O)Cc2cc(NC(=O)Cc3ccccc3)ccc2O[C@@H]1CN(C)Cc1ccc(C(F)(F)F)cc1
- AC50 (Paired box protein Pax-8): 11.8 µM (active)

SMILES: COc1ccc(NC(=O)Nc2ccc3c(c2)C(=O)N([C@H](C)CO)C[C@H](C)[C@H](CN(C)S(=O)(=O)c2ccc(OC)cc2)O3)cc1
- AC50 [10]: 2.08 µM (active)
- AC50 [11]: 4.67 µM (active)

SMILES: C[C@@H]1CCCCO[C@@H](CN(C)Cc2ccc(C(F)(F)F)cc2)[C@H](C)CN([C@H](C)CO)C(=O)c2cc(NS(=O)(=O)c3cccs3)ccc2O1
- AC50 (Paired box protein Pax-8): 9.08 µM (active)

SMILES: COC(=O)C1=C(C)N(Cc2ccccc2)[C@]23O[C@](C(=O)OC)(C(=O)N2C1c1ccccc1)C1C(=O)N(C)C(=O)C13 (stereo partly specified)
- AC50 (Cytochrome P450 3A4): 2.51 µM (inconclusive) and 3.16 µM (inconclusive)

SMILES: CC(=O)O[C@H]1C[C@H](O[C@H]2[C@@H](O)C[C@H](O[C@H]3[C@@H](O)C[C@H](O[C@H]4CC[C@@]5(C)[C@H](CC[C@@H]6[C@@H]5CC[C@]5(C)[C@@H](C7=CC(=O)OC7)CC[C@]65O)C4)O[C@@H]3C)O[C@@H]2C)O[C@H](C)[C@H]1O[C@@H]1O[C@H](CO)[C@@H](O)[C@H](O)[C@H]1O
- AC50 (Paired box protein Pax-8): 0.345 µM (active)

SMILES: Cc1cc(O)cc(=O)o1
- AC50 (Cytochrome P450 3A4): 39.8 µM (inconclusive)

SMILES: CC(=O)Oc1cc(OC(C)=O)c2c(=O)cc(-c3ccc(OC(C)=O)c(OC(C)=O)c3)oc2c1
- AC50 (Cytochrome P450 3A4): 0.794 µM (inconclusive)

SMILES: CCCCC(CC)CN=C(N)N=C(N)NCCCCCCNC(N)=NC(N)=NCC(CC)CCCC (stereo unspecified) [ALEXIDINE HYDROCHLORIDE]
- CC50 [7]: 10.5 µM (active)
- AC50 (INS1): 2.26 µM (active)

SMILES: CC1(C)[C@@H](O)CC[C@]2(C)[C@H]3C(=O)C=C4[C@@H]5C[C@@](C)(C(=O)O)CC[C@]5(C)CC[C@@]4(C)[C@]3(C)CC[C@@H]12 [ENOXOLONE]
- AC50 (Cytochrome P450 3A4): 15.8 µM (inconclusive)
